As a reminder, the Ki is the dissociation constant of the complex between target and ligand, obtained from inhibition or displacement. As usually defined, the Kd is a measure of binding affinity in units of concentration.

The target in assay [1] is T1, [125I]-ICYP specific binding site (SMBP, SM-11044 binding protein) in rat colon smooth muscle membranes (Rattus norvegicus, UniProt A0A8I6A822).
T1 construct: Membranes from colon smooth muscles were prepared as essentially described by Ek et al., 1986; from tissue
T1 sequence (A0A8I6A822 27-587): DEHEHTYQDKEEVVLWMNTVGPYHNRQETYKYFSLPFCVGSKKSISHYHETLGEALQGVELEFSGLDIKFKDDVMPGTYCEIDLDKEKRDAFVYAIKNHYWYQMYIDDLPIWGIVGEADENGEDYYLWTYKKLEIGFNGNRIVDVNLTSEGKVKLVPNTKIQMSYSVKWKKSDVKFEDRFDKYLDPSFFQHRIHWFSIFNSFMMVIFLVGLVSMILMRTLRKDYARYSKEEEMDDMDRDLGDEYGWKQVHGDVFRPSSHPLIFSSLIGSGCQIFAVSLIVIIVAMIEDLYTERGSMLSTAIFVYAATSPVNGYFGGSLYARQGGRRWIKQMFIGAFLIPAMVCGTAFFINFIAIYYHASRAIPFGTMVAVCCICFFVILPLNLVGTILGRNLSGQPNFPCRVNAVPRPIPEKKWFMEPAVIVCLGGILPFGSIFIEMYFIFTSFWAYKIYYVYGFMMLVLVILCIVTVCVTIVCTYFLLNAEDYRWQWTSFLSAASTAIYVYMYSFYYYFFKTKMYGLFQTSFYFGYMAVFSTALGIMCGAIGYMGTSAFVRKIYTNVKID
In words: [125I]-ICYP saturation and competition binding to rat colon membranes (Example 2). The settings on record: for Ki: read-out: Ki on [125I]-ICYP specific binding to rat colon membranes; for Displacement of [125I]-ICYP specific binding (in words): competition binding, no concentration stated; for Displacement of [125I]-ICYP specific binding: up to the concentration of 1 mM. As to the method:
Incubations were carried out at 37° C. for 30 min in a shaking water-bath incubator and terminated by addition of 4 ml of ice-cold Tris-saline followed by rapid filtration under vacuum on Whatman GF/B filter presoaked in Tris-saline containing 0.1% polyethyleneimine (pH 7.4). The filters were washed three times with 4 ml of ice-cold Tris-saline, transferred to plastic tubes and counted in a γ-counter.
Hill coefficient was calculated by linear regression using saturation experiment data. Pseudo-Hill coefficient and IC50 were determined by the computer program, InPlot™ (GraphPad Software, CA, USA).
In general terms: Displacement assays read how much labelled ligand stays bound in the presence of the test substance.

Another assay relates to guinea pig eosinophil. The assay can be described thus: Leukotriene B4 induced guinea pig eosinophil chemotaxis. In kind it is cell-based. As to conditions: for Effect of antagonist on the inhibition of eosinophil chemotaxis: inhibition by SM-11044 and BRL-35135A.
The target in assay [2] is T2, SMBP in rat colon smooth muscle membranes (Rattus norvegicus, UniProt A0A8I6A822).
T2 construct: Membranes from colon smooth muscles were prepared as essentially described by Ek et al., 1986; from tissue
T2 sequence (A0A8I6A822 27-587): as above
In words: [125I]-ICYP saturation binding to rat colon membranes (Example 1). As to conditions: means ± SD. On the procedure:
Frozen rat colons (SD strains, male and female) were purchased from Pel-Freeze Biologicals (Arkansas, USA). Membranes from colon smooth muscles were prepared as essentially described by Ek et al., 1986, with the slight following modifications. The colon segment was washed in ice-cold Tris-saline (10 mM Tris/HCl, 154 mM NaCl, (pH 7.4)), cut open longitudinally and the mucosa was removed by scrubbing with a glass slide on ice-cold plastic plate. The smooth muscle preparations were homogenized with a Polytron homogenizer for 1 min. The homogenate was filtered through a gauze and centrifuged (1,500×g for 20 min at 4° C.), the supernatant was collected and centrifuged (50,000×g for 20 min at 4° C.). The pellet comprising the membranes was resuspended in Tris-saline and was stored at −80° C. until use. The protein concentration was determined by Bio-Rad protein assay kit (Bio-Rad USA).
Saturation binding studies were performed in a final volume of 200 μl of Tris-saline containing 50 μg membrane proteins and different concentrations (0.05-25 nM) of [^125I]-ICYP, in the presence of 10 μM serotonine (5-HT), 10 μM phentolamine, 20 μM (±) propranolol and 1.1 mM ascorbic-acid pH 7.4), to block possible 5-HT receptors, ARs and oxidation of catecholamines, respectively. […] The filters were washed three times with 4 ml of ice-cold Tris-saline, transferred to plastic tubes and counted in a γ-counter.

Assay [3] deals with rat colon smooth muscle segment. The assay can be described thus: Relaxation of KCl-induced tonus in rat colon segment (organ bath). The settings on record: for IA, rat colon relaxation: 10 μM phentolamine and 1 μM propranolol, relative to isoproterenol, mean ± SEM; for EC50: Rattus norvegicus, read-out: pD2, rat colon relaxation (converted). As to the method:
Rat colon segment (2 cm) was suspended in organ bath containing 10 ml modified-Tyrode solution (Sugasawa T. et al. Eur. J. Pharmacol., 1992, 216, 207-215). The Tyrode solution contained 0.5 μM atropine, 0.5 μM desmethylimipramine, 30 μM hydrocortisone, 30 μM ascorbic acid, 10 μM phentolamine and 1 μM propranolol throughout study, in order to inhibit spontaneous contraction, neuronal and extra-neuronal uptake of norepinephrine, oxidation of catecholamines, possible α, β1- and β2-AR effects, respectively.
The relaxant action of agonists was determined by measuring relaxation of KCl (100 mM)-induced tonus evoked by cumulative addition of the agonists as described previously (Sugasawa T. et al. cited above). In the case of testing the effect of cyanopindolol, it was added 5-10 min before the addition of agonist.
(§1) Agonist concentration-ratios (CR) were determined from the EC50 values of the concentration-response curves of agonists with or without cyanopindolol, according to the method of Arunlakshana et al., 1959.
(§2) The EC50 values were calculated using the computer program, InPlot™.

The next assay concerns rat white adipocytes. The assay can be described thus: Lipolysis in rat white adipocytes. The format is cell-based. As to conditions: for IA, rat white adipocyte lipolysis: 10 μM phentolamine and 1 μM propranolol, relative to isoproterenol, mean ± SEM; for EC50: Rattus norvegicus, Adipocyte, read-out: pD2, rat white adipocyte lipolysis (converted). As to the method: White adipocytes were isolated from epididymal fat pads of male Wistar rats (190-230 g) and lipolysis was determined according to the previous report (Sugasawa T. et al. cited above). The cells were preincubated for 5 min at 37° C. in the presence of 30 μM ascorbic acid, 10 μM phentolamine and 1 μM propranolol.
Agonists were then applied and incubated for 90 min. In the case of testing the effect of cyanopindolol, it was added 5 min before the addition of agonist.
as §1, §2

Assay [4] concerns the target T3, 34 kDa photoaffinity-labeled protein (SMBP) in rat colon membranes (Rattus norvegicus, UniProt A0A8I6A822).
T3 construct: Membranes from colon smooth muscles were prepared as essentially described by Ek et al., 1986; from tissue
The assay can be described thus: Photoaffinity labeling of rat colon membranes with [125I]-ICYP-diazirine. The format is binding. The settings on record: competitor 20 μM; 10 μM 5-HT and 10 μM phentolamine. As to the method:
Incubations were carried out in the presence or absence of competitor at 37° C. for 45 min in the dark in a shaking water-bath incubator and terminated by addition of 10 ml of ice-cold Tris-saline followed by a rapid centrifugation (150,000×g for 10 min at 4° C.). The membranes were irradiated with a UV lamp for 5 min with cooling by circulating water. The labeled membranes were diluted with 10 ml of ice-cold Tris-saline, centrifuged (150,000×g for 30 min at 4° C.), and the pellet was resuspended in Tris-saline and kept at −80° C.
SDS-PAGE was performed under reducing conditions essentially as described by Laemmli, 1970, using 12% polyacrylamide gels (40% T, 2.6% C). […] After electrophoresis, the gels were dried and autoradiographed on X-OMAT™ AR film (Eastman Kodak Co., NY, USA), as specified in example 1, chapter <<(preparative SDS-PAGE>>.

The mark [5] stands for this setting: 1 nM [125I]-ICYP, 10 μM 5-HT, 10 μM phentolamine and 20 μM propranolol.

T3 sequence (A0A8I6A822 27-587): as above

`C=CCc1ccccc1OCC(O)CNC(C)C` (racemic) [(±)-alprenolol, alprenolol]: in assay [1] (setting [5]), the Pseudo-Hill coefficient is on record as 0.85 ± 0.24 and the Ki was determined as 13.3 ± 2.4 µM. Also, the “Effect of antagonist on the inhibition of eosinophil chemotaxis” value in the assay on guinea pig eosinophil is “antagonized”.
With `Cc1ccc(Cl)c(OCC(O)CNC(C)(C)C)c1` (racemic) [(±)-bupranolol, bupranolol], in assay [1] (setting [5]), the Pseudo-Hill coefficient amounted to 1.08 ± 0.08 and the inhibition constant Ki stood at 11.3 ± 0.8 µM.
In the case of `CC(C)NCC(O)COc1cccc2[nH]c3ccccc3c12` (racemic) [(±)-carazolol, carazolol], in assay [1] (setting [5]), the Pseudo-Hill coefficient came out at 0.77 ± 0.11 and the Ki worked out at 8.1 ± 1.7 µM. Besides, the “Displacement of [125I]-ICYP specific binding (in words)” value (“Displacement … (in words)” for short) in assay [1] is “less effective”.
Regarding `COC(=O)COc1ccc(OCCNCC(O)COc2ccccc2)cc1` (racemic) [ICI-198157, (RS)-4-[2-[(2-hydroxy-3-phenoxypropyl)amino]ethoxy]phenoxyacetic acid methyl ester], in assay [1] (setting [5]), the Pseudo-Hill coefficient worked out at 0.96 ± 0.23 and the Ki came out at 29.4 ± 8.9 µM. Also, in assay [1], the “Displacement … (in words)” value is “displaced the specific binding”.
With `O=C([C@@H](NCCCc1ccc(F)cc1)[C@@H](O)c1ccc(O)c(O)c1)N1CCCC1` (racemic) [SM-14010], in assay [1] (setting [5]), the Pseudo-Hill coefficient worked out at 0.67 ± 0.13 and the Ki came to 29.3 µM.
Regarding `O=C([C@@H](NCCCc1ccc(F)cc1)[C@H](O)c1ccc(O)c(O)c1)N1CCCC1` (racemic) [SM-14011], in assay [1] (setting [5]), the Pseudo-Hill coefficient amounted to 1.07 ± 0.15 and the Ki was determined as 2 µM. Also, in assay [1] (ratio of Ki, SM-14011 vs SM-14010), the “Effectiveness in competition binding relative to SM-14010” value stood at 15 times.
`CCOC(=O)COc1ccc2c(c1)C[C@@H](NC[C@H](O)c1cccc(Cl)c1)CC2` (racemic) [SR-58611A, (RS)-N-(7 carbethoxymethoxyl-1,2,3,4-tetrahydronaphth-2-yl)-2-hydroxy-2-(3 chlorophenyl) ethanamine hydro-chloride]: in assay [1] (setting [5]), the Pseudo-Hill coefficient is listed as 1.21 ± 0.21 and the Ki stood at 5.9 ± 1 µM.
For `CC(C)(C)NCC(O)COc1cccc2[nH]c(C#N)c(I)c12` (single isomer, unassigned; (-)) [[^125I]-ICYP, (−)-3-[^125I] iodocyanopindolol], the Kd in assay [1] (Example 2 membranes (Wistar rats), 10 μM 5-HT, 10 μM phentolamine and 20 μM propranolol, read-out: Dissociation constant (Kd), Scatchard plot) was found to be 0.011 ± 0.00095 µM; in assay [2] (Example 1 membranes (SD rats), blockade of adrenergic and serotonine receptors, read-out: Dissociation constant (Kd), Scatchard plot), 0.00722 ± 7e-06 µM.
With `CC(C)(C)NCC(O)COc1cccc2[nH]c(C#N)c([125I])c12` (single isomer, unassigned; (-)) [[^125I]-ICYP, (−)-3-[^125I] iodocyanopindolol], in assay [1] (1 nM [125I]-ICYP, 30 min, n=2), the “Specific binding at equilibrium levels” value is on record as 82.7±1.9%. Further, the “Maximum number of binding sites (Bmax)” value in assay [1] (Example 2 membranes, 10 μM 5-HT, 10 μM phentolamine and 20 μM propranolol) was 716.7±21.12 fmol/mg protein; in assay [2] (Example 1 membranes), 1.13 ±0.071 pmol/mg membrane protein. For the same compound, the “Hill coefficient of the saturation curve” value in assay [1] (saturation experiment, 30 min incubation) is given as 0.99±0.03.
In the case of `NCCc1c[nH]c2ccc(O)cc12` [5-HT, serotonine], the Ki in assay [1] (setting [5]) is more than 1000 µM. For the same compound, the “Displacement of [125I]-ICYP specific binding” value in assay [1] is “not displaced”.
Turning to `CNC[C@H](O)c1ccc(O)c(O)c1` [(−)-epinephrine, epinephrine], in assay [1] (setting [5]), the Ki was more than 1000 µM. Further, in assay [1], the “Displacement of [125I]-ICYP specific binding” value is listed as “not displaced”. In addition, in assay [3], the “IA, rat colon relaxation” value came out at 0.86 ± 0.137 and the EC50 is 1.2 µM. In the assay with rat white adipocytes, the “IA, rat white adipocyte lipolysis” value amounted to 0.91 ± 0.036 and the EC50 is 6.92 µM.
For `NC[C@H](O)c1ccc(O)c(O)c1` [(−)-norepinephrine, norepinephrine], the Ki in assay [1] (setting [5]) is more than 1000 µM. For the same compound, in assay [1], the “Displacement of [125I]-ICYP specific binding” value was “not displaced”. In assay [3], the “IA, rat colon relaxation” value stood at 0.85 ± 0.168 and the EC50 is 1.41 µM. Also, in the assay on rat white adipocytes, the “IA, rat white adipocyte lipolysis” value is 1.02 ± 0.058 and the EC50 is 3.98 µM.
Regarding `COC(=O)COc1ccc(CC(C)NCC(O)c2cccc(Cl)c2)cc1` (stereo not drawn) [BRL-35135A, (R*R*)-(+)-4-[2′-[2-hydroxy 2-(3-chlorophenyl)ethylamino]propyl]phenoxyacetic acid methyl ester], in assay [1] (setting [5]), the Pseudo-Hill coefficient was 0.80 ± 0.14 and the Ki came out at 1.4 ± 0.1 µM. In assay [1], the “Displacement … (in words)” value is on record as “displaced the specific binding”. For the same compound, the “Inhibition of leukotriene B4 induced guinea pig eosinophil chemotaxis” value with guinea pig eosinophil is reported as “inhibiting”.
As to `CC(C)(C)NCC(O)COc1cccc2[nH]c(=O)[nH]c12` (stereo not shown) [CGP-12177A], the Ki in assay [1] (setting [5]) is more than 100 µM.
As for `NCCc1ccc(O)c(O)c1` [Dopamine, dopamine], the Ki in assay [1] (setting [5]) was more than 1000 µM. In addition, the “Displacement of [125I]-ICYP specific binding” value in assay [1] was “not displaced”.
For the compound `Nc1nc2c(ncn2[C@@H]2O[C@H](COP(=O)(O)OP(=O)(O)OP(=O)(O)O)[C@@H](O)[C@H]2O)c(=O)[nH]1` [GTP], the “Inhibition of [125I]-ICYP specific binding” value in assay [1] (at 300 μM, n=2) was determined as 29.8±2.7%; in assay [1] (at 1 mM, n=2), 98.2 ± 1.3%.
As to `Cc1ccc(OCC(O)C(C)NC(C)C)c2c1CCC2` (stereo not shown) [ICI-118551], in assay [1] (setting [5]), the Pseudo-Hill coefficient is 0.89 ± 0.14 and the Ki came to 28.5 µM.
For the compound `O=C(O)COc1ccc(OCCNCC(O)COc2ccccc2)cc1` (stereo not shown) [ICI-201651], the Ki in assay [1] (setting [5]) is more than 100 µM.
On the same count and under the same terms, under `O=C(O)COc1ccc(OCCNC[C@H](O)COc2ccccc2)cc1` [ICI-215001] stands more than 100 µM.
`O=C([C@H](NCCCc1ccc(F)cc1)[C@@H](O)c1ccc(O)c(O)c1)N1CCCC1` [SM-14786]: in assay [1] (setting [5]), the Pseudo-Hill coefficient turned out to be 0.92 ± 0.15 and the Ki came out at 3.7 ± 0.4 µM.
Turning to `CC(C)NCC(O)COc1cccc2ccccc12` (stereo not shown) [propranolol], the “Effect on photoaffinity-labeled bands” value in assay [4] was “only the 34 kDa band remained visible”. The “Effect of antagonist on the inhibition of eosinophil chemotaxis” value in the assay with guinea pig eosinophil is recorded as “unaffected”.

The values are drawn from patent US7276576B1, “Mammalian ICYP (iodocyanopindolol) receptor and its applications” (Dainippon Sumitomo Pharma Co., Ltd., priority 1996, dated 2007).
